Laboratory results reported in ChEMBL document CHEMBL3259797, “Radiosyntheses and in vivo evaluation of carbon-11 PET tracers for PDE10A in the brain of rodent and nonhuman primate” (Bioorg Med Chem, 2014).

Columns and labels:
Kidney [1] = assay: Biodistribution in Sprague-Dawley rat kidney at 14.8 to 18.5 MBq, iv measured at 60 mins post-injection by gamma counting analysis; format: ADME, organism-based; details: in vivo, 1 h
Heart [2] = assay: Biodistribution in Sprague-Dawley rat heart at 14.8 to 18.5 MBq, iv measured at 60 mins post-injection by gamma counting analysis; format: ADME, organism-based; details: in vivo, 1 h
Liver [3] = assay: Biodistribution in Sprague-Dawley rat liver at 14.8 to 18.5 MBq, iv measured at 60 mins post-injection by gamma counting analysis; format: ADME, organism-based; details: in vivo, 1 h
Muscle tissue [4] = assay: Biodistribution in Sprague-Dawley rat muscle at 14.8 to 18.5 MBq, iv measured at 30 mins post-injection by gamma counting analysis; format: ADME, organism-based; details: in vivo, 0.5 h
Muscle tissue [5] = assay: Biodistribution in Sprague-Dawley rat muscle at 14.8 to 18.5 MBq, iv measured at 5 mins post-injection by gamma counting analysis; format: ADME, organism-based; details: in vivo
Brain [6] = assay: Biodistribution in Sprague-Dawley rat brain at 14.8 to 18.5 MBq, iv measured at 30 mins post-injection by gamma counting analysis; format: ADME, organism-based; details: in vivo, 0.5 h
Cerebellum [7] = assay: Biodistribution in Sprague-Dawley rat cerebellum at 14.8 to 18.5 MBq, iv measured at 5 mins post-injection by gamma counting analysis; format: ADME, organism-based; details: in vivo
Liver [8] = assay: Biodistribution in Sprague-Dawley rat liver at 14.8 to 18.5 MBq, iv measured at 5 mins post-injection by gamma counting analysis; format: ADME, organism-based; details: in vivo
Lung [9] = assay: Biodistribution in Sprague-Dawley rat lung at 14.8 to 18.5 MBq, iv measured at 5 mins post-injection by gamma counting analysis; format: ADME, organism-based; details: in vivo
Striatum [10] = assay: Biodistribution in Sprague-Dawley rat striatum at 14.8 to 18.5 MBq, iv measured at 5 mins post-injection by gamma counting analysis; format: ADME, organism-based; details: in vivo
Blood [11] = assay: Biodistribution in Sprague-Dawley rat blood at 14.8 to 18.5 MBq, iv measured at 30 mins post-injection by gamma counting analysis; format: ADME, organism-based; details: in vivo, 0.5 h
Brain [12] = assay: Biodistribution in Sprague-Dawley rat brain at 14.8 to 18.5 MBq, iv measured at 5 mins post-injection by gamma counting analysis; format: ADME, organism-based; details: in vivo
Muscle tissue [13] = assay: Biodistribution in Sprague-Dawley rat muscle at 14.8 to 18.5 MBq, iv measured at 60 mins post-injection by gamma counting analysis; format: ADME, organism-based; details: in vivo, 1 h
Liver [14] = assay: Biodistribution in Sprague-Dawley rat liver at 14.8 to 18.5 MBq, iv measured at 30 mins post-injection by gamma counting analysis; format: ADME, organism-based; details: in vivo, 0.5 h
Rattus norvegicus [15] = assay: Biodistribution in Sprague-Dawley rat fat at 14.8 to 18.5 MBq, iv measured at 60 mins post-injection by gamma counting analysis; format: ADME, organism-based, Adipose tissue; details: in vivo, 1 h
Lung [16] = assay: Biodistribution in Sprague-Dawley rat lung at 14.8 to 18.5 MBq, iv measured at 60 mins post-injection by gamma counting analysis; format: ADME, organism-based; details: in vivo, 1 h
Heart [17] = assay: Biodistribution in Sprague-Dawley rat heart at 14.8 to 18.5 MBq, iv measured at 30 mins post-injection by gamma counting analysis; format: ADME, organism-based; details: in vivo, 0.5 h
Heart [18] = assay: Biodistribution in Sprague-Dawley rat heart at 14.8 to 18.5 MBq, iv measured at 5 mins post-injection by gamma counting analysis; format: ADME, organism-based; details: in vivo
Striatum [19] = assay: Biodistribution in Sprague-Dawley rat striatum at 14.8 to 18.5 MBq, iv measured at 60 mins post-injection by gamma counting analysis; format: ADME, organism-based; details: in vivo, 1 h
Rattus norvegicus [20] = assay: Biodistribution in Sprague-Dawley rat fat at 14.8 to 18.5 MBq, iv measured at 5 mins post-injection by gamma counting analysis; format: ADME, organism-based, Adipose tissue; details: in vivo
Striatum [21] = assay: Biodistribution in Sprague-Dawley rat striatum at 14.8 to 18.5 MBq, iv measured at 30 mins post-injection by gamma counting analysis; format: ADME, organism-based; details: in vivo, 0.5 h
Blood [22] = assay: Biodistribution in Sprague-Dawley rat blood at 14.8 to 18.5 MBq, iv measured at 5 mins post-injection by gamma counting analysis; format: ADME, organism-based; details: in vivo
Brain [23] = assay: Biodistribution in Sprague-Dawley rat brain at 14.8 to 18.5 MBq, iv measured at 60 mins post-injection by gamma counting analysis; format: ADME, organism-based; details: in vivo, 1 h
Cerebellum [24] = assay: Biodistribution in Sprague-Dawley rat cerebellum at 14.8 to 18.5 MBq, iv measured at 30 mins post-injection by gamma counting analysis; format: ADME, organism-based; details: in vivo, 0.5 h
Blood [25] = assay: Biodistribution in Sprague-Dawley rat blood at 14.8 to 18.5 MBq, iv measured at 60 mins post-injection by gamma counting analysis; format: ADME, organism-based; details: in vivo, 1 h
Cerebellum [26] = assay: Biodistribution in Sprague-Dawley rat cerebellum at 14.8 to 18.5 MBq, iv measured at 60 mins post-injection by gamma counting analysis; format: ADME, organism-based; details: in vivo, 1 h
Kidney [27] = assay: Biodistribution in Sprague-Dawley rat kidney at 14.8 to 18.5 MBq, iv measured at 5 mins post-injection by gamma counting analysis; format: ADME, organism-based; details: in vivo
Lung [28] = assay: Biodistribution in Sprague-Dawley rat lung at 14.8 to 18.5 MBq, iv measured at 30 mins post-injection by gamma counting analysis; format: ADME, organism-based; details: in vivo, 0.5 h
Kidney [29] = assay: Biodistribution in Sprague-Dawley rat kidney at 14.8 to 18.5 MBq, iv measured at 30 mins post-injection by gamma counting analysis; format: ADME, organism-based; details: in vivo, 0.5 h
Rattus norvegicus [30] = assay: Biodistribution in Sprague-Dawley rat fat at 14.8 to 18.5 MBq, iv measured at 30 mins post-injection by gamma counting analysis; format: ADME, organism-based, Adipose tissue; details: in vivo, 0.5 h
Nucleic Acid = assay: Ratio of drug level in striatum to cerebellum in Sprague-Dawley rat at 14.8 to 18.5 MBq, iv measured at 30 mins post-injection by gamma counting analysis; format: ADME, organism-based; details: in vivo, 0.5 h

Structure (SMILES)	Drug uptake (Kidney [1]) [% ID/g]	Drug uptake (Heart [2]) [% ID/g]	Drug uptake (Liver [3]) [% ID/g]	Drug uptake (Muscle tissue [4]) [% ID/g]	Drug uptake (Muscle tissue [5]) [% ID/g]	Drug uptake (Brain [6]) [% ID/g]	Drug uptake (Cerebellum [7]) [% ID/g]	Drug uptake (Liver [8]) [% ID/g]	Drug uptake (Lung [9]) [% ID/g]	Drug uptake (Striatum [10]) [% ID/g]	Drug uptake (Blood [11]) [% ID/g]	Drug uptake (Brain [12]) [% ID/g]	Drug uptake (Muscle tissue [13]) [% ID/g]	Drug uptake (Liver [14]) [% ID/g]	Drug uptake (Rattus norvegicus [15]) [% ID/g]	Drug uptake (Lung [16]) [% ID/g]	Drug uptake (Heart [17]) [% ID/g]	Drug uptake (Heart [18]) [% ID/g]	Drug uptake (Striatum [19]) [% ID/g]	Drug uptake (Rattus norvegicus [20]) [% ID/g]	other results
Cn1cc(-c2ccncc2)c(-c2ccc(OCc3ccc4cc(O[11CH3])ccc4n3)cc2)n1	0.637	0.182	1.724	0.175	0.151	0.105	0.251	5.357	0.744	0.293	0.275	0.249	0.129	3.172	0.135	0.249	0.264	0.416	0.089	0.139	Drug uptake (Striatum [21]): 0.16 % ID/g; Drug uptake (Blood [22]): 0.282 % ID/g; Drug uptake (Brain [23]): 0.074 % ID/g; Drug uptake (Cerebellum [24]): 0.09 % ID/g; Drug uptake (Blood [25]): 0.21 % ID/g; Drug uptake (Cerebellum [26]): 0.066 % ID/g; Drug uptake (Kidney [27]): 1.333 % ID/g; Drug uptake (Lung [28]): 0.389 % ID/g; Drug uptake (Kidney [29]): 0.883 % ID/g; Drug uptake (Rattus norvegicus [30]): 0.221 % ID/g
Cn1ncc(-c2ccncc2)c1-c1ccc(OCc2cc(O[11CH3])c3ccccc3n2)cc1	0.575	0.103	4.588	0.093	0.146	0.025	0.094	3.312	0.643	0.151	0.067	0.091	0.052	4.43	0.139	0.107	0.132	0.335	0.037	0.066	Ratio (Nucleic Acid): 3.6; Drug uptake (Striatum [21]): 0.083 % ID/g; Drug uptake (Blood [22]): 0.099 % ID/g; Drug uptake (Brain [23]): 0.015 % ID/g; Drug uptake (Cerebellum [24]): 0.024 % ID/g; Drug uptake (Blood [25]): 0.067 % ID/g; Drug uptake (Cerebellum [26]): 0.015 % ID/g; Drug uptake (Kidney [27]): 1.744 % ID/g; Drug uptake (Lung [28]): 0.156 % ID/g; Drug uptake (Kidney [29]): 0.645 % ID/g; Drug uptake (Rattus norvegicus [30]): 0.139 % ID/g
